Assay results as given in US20210283163A1, “COMPOSITIONS AND METHODS FOR THE TREATMENT OF ACUTE AND CHRONIC PRURITIS” (Duke University, priority 2018, published 2021).

Key:
TG neurons = assay: Calcium imaging in TG neurons of Pirt-GCaMP3 mice; type: cell-based, mouse; conditions: histamine 500 μM, CQ 1000 μM, AITC 200 μM; for TG neurons responding (calcium): miR-711 50 μM, 204 neurons
Experimental: (§1) Primary Cultures of Mouse and Human Sensory Neurons. […] Cells were mechanically dissociated with a flame polished Pasteur pipette in the presence of 0.05% DNase I (Sigma).
(§2) Ca^2+ Imaging. […] The imaging buffer includes 140 mM NaCl, 10 mM D-(+)-Glucose, 1 mM MgCl2, 2 mM CaCl2, 5 mM KCl, 10 mM HEPES, pH=7.4, osmolarity=320 mOsm/L. Calcium signals were measured using green emitted light in a 3 s interval. Ca ^2+ signal amplitudes were presented as ΔF/F0=(Ft−F0)/F0 as ratio of fluorescence difference (Ft−F0) to basal value (F0). The average fluorescence intensity in the baseline period was taken as F0. Ca ^2+ imaging was also analyzed in HEK293-TRPA1 cell line after loading cells with […] fura2-AM (Invitrogen) for 40 min in the Ca^2+ imaging buffer. Ca^2+ imaging protocol was a ratio metric method with 340/380-nm wavelength light for dual excitation. Data were presented as ΔR/R0, determined as the fraction ΔR (Rt−R0) of the increase of a given ratio over baseline ratio (R0).

DRG neurons = assay: Calcium imaging in cultured DRG neurons of Pirt-GCaMP3 mice; type: cell-based, mouse; conditions: histamine 500 μM, CQ 1,000 μM, AITC 200 μM; for DRG neurons showing Ca2+ increase / responses: miR-711 50 μM, 544 neurons from 3 mice
Experimental: as §1, §2

CTCL mice = assay: Mouse CTCL xenograft model of chronic itch; type: in vivo; conditions: given 20 days after Myla cell inoculation; hsa-miR-711 inhibitor 100 μM, HC030031 200 μM, A967079 50 μM, peptides 2 mM
Experimental: Mouse CTCL Xenograft Model of Chronic Itch. We developed a murine xenograft model of cutaneous T cell lymphoma (CTCL) using immune-deficient mice (NOD.CB17-Prkdcscid, 8-10 weeks old, male). CD4^+ MyLa cell line was purchased from Sigma (Ca #95051032). The cell line was established from a plaque biopsy of a person with mycosis fungoides stage II by inclusion of IL-2 and IL-4 in the culture medium. CTCL was generated via intradermal injection of CD4^+ Myla cells (1×10^5 cells/μl, 100 μL) on the nape of the neck. Tumor growth was assessed for 40 days by measurements of tumor diameters.
(§3) Behavioral Assessment for Scratching (Itch) and Wiping (Pain). Mice were shaved on the cheek or nape after a brief anesthesia with isoflurane. Before experiments, mice were habituated in small plastic chambers (14×18×12 cm) daily for two days. The room temperature and humidity remained stable for all the experiments. […] After the injection, the number of scratches in 60 min was counted. A scratch was counted when a mouse lifted its hind paw to scratch the shaved region and returned the paw to the floor or to the mouth. A bout of wiping was defined as a continuous wiping movement with a forepaw directing at the area of the injection area (Shimada and LaMotte, Pain 2008, 139, 681-687). Scratching and wiping behavior was videoed for 30 min or 60 min using Sony HDR-CX610 camera. The video was subsequently played back offline and the numbers of scratches and wipes were quantified in a blinded manner.
Generation of Myla Stable Cell Line Expressing miR-711 Inhibitor. CD4^+ Myla cells were plated at a density of 2×10^5 cells/mL in 2 mL culture media in 6-well plates. For each well, 20 μL of the MISSION Lenti microRNA Inhibitor (hsa-miR-711) lentivirus (Sigma) with a titer of 2.6×10^7 Tu/mL were added. Cell mixtures were incubated at 37° C. for 48 hr, washed with PBS three times, and re-suspended in fresh culture media, and 24 hr later, 1 μg/mL puromycin was added to the cells to select stably transduced cell populations. We tried to grow and passage the cells as much as necessary (usually 3 days) and maintained selection pressure by keeping 1 μg/mL puromycin in the medium. After 4 weeks, a large number of the cells were killed; the remaining cells retained the expression of the plasmid, which stably integrates into the genome of the targeted cells. These cells were used for inoculation to generate the CTCL model for testing the effects of miR-711 inhibitor on chronic itch and tumor growth.

naive mice = type: in vivo, mouse; conditions: naive mice; for scratching (itch) after intradermal cheek injection / wiping (pain) after intradermal cheek injection: 1 mM, 5 μL
Experimental: as §3

hTRPA1 = hTRPA1 (Homo sapiens, UniProt O75762); assay: Whole-cell patch clamp, inward currents in HEK293 cells expressing hTRPA1; type: cell-based; conditions: bath application; miRNAs and core sequence 10 μM, AITC 50 μM
Experimental: Cell Culture and Transfection. CD4^+ Myla cell line was cultured in RPMI 1640 media (GIBCO), supplemented with 2 mM Glutamine (GIBCO), 100 U/mL IL-2 (Sigma), 100 U/mL IL-4 (Sigma), and 10% human AB serum (Sigma). HuT 102 cell line was cultured in RPMI 1640 supplemented with pyruvate, HEPES, and 10% (v/v) fetal bovine serum (HyClone). HEK293-hTRPA1 stable cell line was cultured in MEM (GIBCO) containing 2 mM Glutamine, 4 μg/mL Blasticidin, 10% FBS (v/v). B16 and CHO cells were cultured in high glucose (4.5 g/L) Dulbecco's Modified Eagle's Medium (GIBCO) containing 10% (v/v) fetal bovine serum (GIBCO). Culture media were supplemented with 50 units/mL of penicillin and 50 μg/mL streptomycin, and cultures were maintained with 5% CO2 in 37° C. incubator. Transfection (2 μg cDNA) was performed with Lipofectamine™ 2000 Reagent (Invitrogen) at 80% confluency and the transfected cells were cultured in the same media for 48 hr before electrophysiological and biochemical studies.
Whole-Cell Patch Clamp Recordings in HEK293 Cells, CHO Cells, and DRG Neurons. Whole-cell patch clamp recordings were performed at room temperature using an Axopatch-200B amplifier (Axon Instruments) with a Digidata 1440B (Axon Instruments). In this study, we only examined small-diameter mouse DRG neurons (<25 μM) and small-diameter human DRG neurons (<55 μM). The patch pipettes were pulled from borosilicate capillaries (World Precision Instruments) using a P-97 Flaming/Brown micropipette puller (Sutter Instrument). Pipette resistance was 4-6 MΩ for whole-cell and outside-out recording. For inward current recordings in mouse and human DRG neurons, HEK293 cells, and CHO cells, the internal solution contains (in mM): 140 CsCl, 10 EGTA, 10 HEPES, and 2 Mg-ATP, adjusted to pH 7.3 with CsOH. Whole cell recordings were performed in an extracellular solution that contains (in mM): 140 NaCl, 5 KCl, 2 MgCl2, 10 HEPES, and 10 glucose, adjusted to pH 7.4 with NaOH and osmolarity to 300-310 mOsm. […] Action potential recordings were performed in small-diameter DRG neurons, with the following solutions: i) internal pipette solution contains: 126 mM K-gluconate, 10 mM NaCl, 1 mM MgCl2, 10 mM EGTA, 10 mM HEPES and 2 mM Na-ATP, adjusted to pH 7.4 with KOH and osmolarity to 295-300 mOsm), and ii) extracellular solution contains: 140 mM NaCl, 5 mM KCl, 2 mM MgCl2, 2 mM CaCl2, 10 mM HEPES, 10 mM glucose, adjusted to pH 7.4 with KOH.

human DRG neurons = assay: Whole-cell patch clamp, inward currents in human DRG neurons; type: cell-based; conditions: 10 μM; small diameters
Experimental: Non-diseased human DRGs were obtained from donors through National Disease Research Interchange (NDRI) with permission of exemption from the Duke University Institutional Review Board (IRB). Postmortem L3-L5 DRGs were dissected from 4 donors and delivered in ice cold culture medium to the laboratory at Duke University within 24-72 hr of the donor's death. Upon the delivery, DRGs were rapidly dissected from nerve roots and minced in a calcium-free HBSS (GIBCO). Human DRG cultures were prepared as previously reported (Chang et al., Neurosci. Bull. 2018, 34, 4-12; Han et al., Neuron 2016, 92, 1279-1293). DRGs were digested at 37° C. in a humidified CO2 incubator for 120 min with collagenase Type II (Worthington, 290 units/mg, 12 mg/mL final concentration) and dispase II (Roche, 1 unit/mg, 20 mg/mL) in PBS with 10 mM HEPES, pH adjusted to 7.4 with NaOH. DRGs were mechanically dissociated using fire-polished pipettes, filtered through a 100 μm nylon mesh and centrifuged (500 g for 5 min). The pellet was resuspended, plated on 0.5 mg/mL poly-D-lysine-coated glass coverslips, and grown in Neurobasal medium supplemented with 10% FBS, 2% B-27 supplement, and 1% penicillin/streptomycin. Whole-cell patch-clamp recordings in small (<[…]) human DRG neurons were conducted at room temperature using patch pipettes with resistances of 3-4 MΩ.
Whole-Cell Patch Clamp Recordings in HEK293 Cells, CHO Cells, and DRG Neurons. Whole-cell patch clamp recordings were performed at room temperature using an Axopatch-200B amplifier (Axon Instruments) with a Digidata 1440B (Axon Instruments). In this study, we only examined small-diameter mouse DRG neurons (<25 μM) and small-diameter human DRG neurons (<55 μM). The patch pipettes were pulled from borosilicate capillaries (World Precision Instruments) using a P-97 Flaming/Brown micropipette puller (Sutter Instrument). Pipette resistance was 4-6 MΩ for whole-cell and outside-out recording. […]

mice = assay: Back model: intradermal nape injection, scratching; type: in vivo, mouse; conditions: 1 mM, 10 μL
Experimental: as §3

hTRPA1, sequence (O75762 whole entry): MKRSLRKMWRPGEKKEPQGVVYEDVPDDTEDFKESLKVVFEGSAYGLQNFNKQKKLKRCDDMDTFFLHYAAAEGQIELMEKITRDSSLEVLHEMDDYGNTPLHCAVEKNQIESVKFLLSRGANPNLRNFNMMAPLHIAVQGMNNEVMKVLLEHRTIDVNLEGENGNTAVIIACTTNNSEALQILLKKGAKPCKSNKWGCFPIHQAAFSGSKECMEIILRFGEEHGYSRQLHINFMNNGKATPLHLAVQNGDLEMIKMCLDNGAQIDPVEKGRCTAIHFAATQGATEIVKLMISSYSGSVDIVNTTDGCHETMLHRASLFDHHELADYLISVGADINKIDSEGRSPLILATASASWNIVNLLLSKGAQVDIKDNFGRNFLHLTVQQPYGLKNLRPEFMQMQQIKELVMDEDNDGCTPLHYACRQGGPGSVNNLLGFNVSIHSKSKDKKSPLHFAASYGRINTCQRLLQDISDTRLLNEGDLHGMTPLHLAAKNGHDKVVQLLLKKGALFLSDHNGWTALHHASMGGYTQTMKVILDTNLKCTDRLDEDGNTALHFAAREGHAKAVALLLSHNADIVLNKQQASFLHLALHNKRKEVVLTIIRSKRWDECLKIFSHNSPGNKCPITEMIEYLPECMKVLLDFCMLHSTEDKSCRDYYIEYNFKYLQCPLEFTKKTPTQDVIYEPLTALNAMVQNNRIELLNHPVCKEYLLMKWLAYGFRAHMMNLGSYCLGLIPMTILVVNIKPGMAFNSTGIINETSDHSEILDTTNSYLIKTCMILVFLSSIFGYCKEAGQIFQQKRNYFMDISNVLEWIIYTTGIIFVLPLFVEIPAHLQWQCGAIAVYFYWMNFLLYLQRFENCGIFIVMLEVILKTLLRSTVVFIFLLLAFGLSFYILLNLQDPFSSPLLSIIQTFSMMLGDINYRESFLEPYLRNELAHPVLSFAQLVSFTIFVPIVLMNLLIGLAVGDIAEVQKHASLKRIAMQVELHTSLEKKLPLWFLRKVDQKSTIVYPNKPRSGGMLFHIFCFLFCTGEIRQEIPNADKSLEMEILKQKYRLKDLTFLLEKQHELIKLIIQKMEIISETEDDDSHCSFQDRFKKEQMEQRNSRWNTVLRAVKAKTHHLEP

CCN(CC)CCCC(C)Nc1ccnc2cc(Cl)ccc12 (centres unmarked) [CQ, chloroquine]
miR-711-responsive TG neurons that also responded (TG neurons): 76% | TG neurons responding (calcium) (TG neurons): 9.3% | miR-711-responsive DRG neurons that also responded (DRG neurons): 66.7% | DRG neurons showing Ca2+ increase / responses (DRG neurons): 5.1%

CC(C)c1ccc(NC(=O)Cn2cnc3c2c(=O)n(C)c(=O)n3C)cc1 [HC30031, 2-(1,3-Dimethyl-2,6-dioxo-1,2,3,6-tetrahydro-7H-purin-7-yl)-N-(4-isopropylphenyl)acetamide]
effect on CTCL-evoked chronic itch (CTCL mice): suppressed

NCCc1c[nH]cn1 [histamine]
miR-711-responsive TG neurons that also responded (TG neurons): 52% | TG neurons responding (calcium) (TG neurons): 6.9% | miR-711-responsive DRG neurons that also responded (DRG neurons): 61.9% | DRG neurons showing Ca2+ increase / responses (DRG neurons): 5.5%

AAAAAAA: Mmu-miR-711 mutant: aaaaaaa (SEQ ID NO: 17) (listed as RNA, chemistry not given here)
scratching after intradermal injection of 7-nucleotide oligos (naive mice): did not affect | wiping after intradermal injection of 7-nucleotide oligos (naive mice): did not affect

GGGACCC: mmu-miR-711 core: gggaccc (SEQ ID NO: 1) (listed as RNA, chemistry not given here)
inward currents (hTRPA1): inward currents induced | scratching after intradermal injection of 7-nucleotide oligos (naive mice): sufficient to elicit scratching | wiping after intradermal injection of 7-nucleotide oligos (naive mice): not wiping

hsa-miR-642b-3p: hsa-miR-642b-3p: agacacauuuggagagggaccc (SEQ ID NO: 10) (AGACACAUUUGGAGAGGGACCC; listed as RNA, chemistry not given here)
scratching (itch) after intradermal cheek injection (naive mice): resulted in pruritus | wiping (pain) after intradermal cheek injection (naive mice): failed to elicit wiping | inward currents in human DRG neurons (human DRG neurons): induced similar inward currents

hsa-miR-711: hsa-miR-711: gggacccagggagagagacguaag (SEQ ID NO: 9) (GGGACCCAGGGAGAGAGACGUAAG; listed as RNA, chemistry not given here)
scratching (itch) after intradermal cheek injection (naive mice): able to evoke pruritus | wiping (pain) after intradermal cheek injection (naive mice): failed to elicit wiping | inward currents in human DRG neurons (human DRG neurons): evoked TRPA1-dependent inward currents

m1: mutant of miR-711: aaaacccggggagagauguaag (SEQ ID NO: 11) (AAAACCCGGGGAGAGAUGUAAG; listed as RNA, chemistry not given here)
scratching (itch) after intradermal cheek injection (naive mice): marked reduction in scratching

m2: mutant of miR-711: gggaaaaggggagagauguaag (SEQ ID NO: 12) (GGGAAAAGGGGAGAGAUGUAAG; listed as RNA, chemistry not given here)
scratching (itch) after intradermal cheek injection (naive mice): marked reduction in scratching

miR-155: mmu-miR-155: uuaaugcuaauugugauaggggu (SEQ ID NO: 7) (UUAAUGCUAAUUGUGAUAGGGGU; listed as RNA, chemistry not given here)
wiping (pain) after intradermal cheek injection (naive mice): Neither did | scratching after intradermal injection on the nape of neck (mice): no effects

miR-326: mmu-miR-326: gggggcagggccuuugugaaggcg (SEQ ID NO: 8) (GGGGGCAGGGCCUUUGUGAAGGCG; listed as RNA, chemistry not given here)
wiping (pain) after intradermal cheek injection (naive mice): Neither did | scratching after intradermal injection on the nape of neck (mice): no effects
